Activity calls are given as the source filed them. The rule behind the calls is not given here.

The inhibition is the relative decrease from the control value, in per cent.

The first assay can be described thus: modifiers of cytoskeleton assembly, confirmation, imaging, high-content imaging, retest and dose response (AID 1249).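 For inhibition: plate controls were untreated cells for no effect and reference compound treated cells for full effect.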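 Note: compound exposure lasted 24 h before fixation.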 The note with it: cell-based imaging, cytoskeleton assembly phenotype, high content; at 2 µM; stronger effect = higher value.
For `CNc1c([N+](=O)[O-])cnn1-c1ccc(Cl)cc1`, the inhibition is -10.2% (inactive). Still for that read-out and setting: next, `Cc1cc(N2CCOCC2)c2c(N)c(C)cc(C)c2n1`: -8.7% (inactive); `Cc1ccc(O)c(NC(=O)C2CC(c3c(F)cccc3Cl)=NO2)c1` (stereo not drawn): -4.4% (inactive). As for `COc1ccc(Cn2c(CCC(=O)O)nc3cccnc32)cc1`, the inhibition is -3% (inactive). Same read-out and setting: next, `CCOC(=O)c1ccc(NC(=O)Cn2nnc(-c3ccccc3)n2)cc1`: 1.3% (inactive); `COc1cccc(CSc2nc3ccccc3cc2C=O)c1`: 3.2% (inactive); `COc1cc2c(O)c3c(c(-c4ccc5c(c4)OCO5)c2cc1OC)C(=O)OC3`: 1.5% (inactive). Same read-out and setting: as for `Cc1cc(C(=O)NN=C2C3CC4CC(C3)CC2C4)c2ccccc2n1`, the figure is -3.8% (inactive); as for `CCOC(=O)c1c(C)c(C(=O)O)n(C)c1C`, -14.7% (inactive).

For the compound `COc1ccc(-c2cc3ccc(OCc4nn[nH]n4)cc3oc2=O)cc1OC`, the inhibition was 2.8% (inactive). The same measure, in the same setting: next, `Cc1ccc(F)cc1NC(=O)c1ccc2c(c1)OCO2`: -1.6% (inactive); `Cc1nc2sc(C(c3ccc(Cl)cc3)N3CC(C)OC(C)C3)c(O)n2n1` (stereo not drawn): -4.4% (inactive). `CC(=O)Cn1c(N2CCC(Cc3ccccc3)CC2)nc2c1c(=O)[nH]c(=O)n2C`: the inhibition was -5.3% (inactive).

On to `Cc1cc(C(=O)CSc2nnc(-c3ccc(F)cc3)o2)c(C)n1CC1COc2ccccc2O1` (stereo not drawn), for which the inhibition is -0.5% (inactive). Still for that read-out and setting: next, `COc1ccccc1OCCn1cc(C(=O)c2ccco2)c2ccccc21`: 3.7% (inactive); `CSc1ccc(CNC2CN3CCC2CC3)cc1` (stereo not drawn): 1.5% (inactive); `CCOC(=O)N1CCC(NC(=O)c2ccc(CNS(=O)(=O)c3ccc(F)cc3)cc2)CC1`: -3.7% (inactive). As for `C/C(=C\C(=O)c1cccnc1)Nc1ccc(C)c(C)c1`, the inhibition was 1.3% (inactive). Still for that read-out and setting: next, `CCc1nc2oc3ccccc3c(=O)c2c(=O)n1CCOC`: 1.7% (inactive); `c1ccc(-c2nnc(CSc3nncs3)o2)cc1`: -7.1% (inactive); `Cc1nonc1NC(=O)CSc1nc(C2CCCCC2)nc2ccccc12`: -6.5% (inactive). The same measure, in the same setting: as for `O=c1c2c3c(sc2nc2n1CCC2)CCC3`, the figure is -14.6% (inactive); as for `Cc1n[nH]c(=O)nc1NCc1ccccc1`, 4% (inactive). As for `COc1ccc(C(C)(C)C)cc1S(=O)(=O)N1CCN(C)CC1`, the inhibition was -1.6% (inactive). On to `Cn1c(CNc2ccccc2O)nc2ccccc21`, for which the inhibition was 1.8% (inactive). Still for that read-out and setting: as for `Cn1cc([N+](=O)[O-])c(C(=O)Nc2ccc3c(c2)OCCO3)n1`, the figure is -7.4% (inactive); as for `CCOC(=O)c1cnc(-n2nc(C)cc2C)nc1NCc1ccccc1`, -4.4% (inactive); as for `Nc1ccccc1NC(=O)c1ccccc1N`, 3.6% (inactive). Same read-out and setting: next, `Cc1cccc(NC(=O)CN2NS(=O)(=O)c3ccccc3C2=O)c1`: -4.6% (inactive); `CCCc1nc(SCC(=O)N2CCc3ccccc32)c2c(C)c(C)sc2n1`: 2.2% (inactive). Same read-out and setting: as for `Cc1cccc(N=C2NC(=O)CS2)c1C`, the figure is 7% (inactive); as for `Cc1ccc(S(=O)(=O)N(CC(=O)NCc2ccco2)Cc2ccc(F)cc2)cc1`, -16.6% (inactive).

Turning to `COc1cc(NC(=O)CN2C(=O)NC(C)(CC(C)C)C2=O)cc(OC)c1` (stereo not drawn), the inhibition was 1.2% (inactive).

For the compound `COc1ccccc1-n1cnc2cc(NCc3ccco3)ccc21`, the inhibition is 10.7% (inactive).

On to `Cc1ccc(S(=O)(=O)NC(CC(=O)O)c2ccco2)cc1` (stereo not drawn), for which the inhibition is 8.2% (inactive). The same measure, in the same setting: as for `CCC(=O)Nc1nc(-c2ccccc2)ns1`, the figure is -1.3% (inactive); as for `CC(C)(C)C(=O)/C(=C\c1cccc([N+](=O)[O-])c1)n1cncn1`, 0.1% (inactive). Still for that read-out and setting: as for `Cc1ccc(-n2ncc3c(N4CCN(c5ccccc5)CC4)ncnc32)c(C)c1`, the figure is -18.4% (inactive); as for `Cn1c(SCc2nc(-c3ccc(Cl)cc3)no2)nnc1-c1cccs1`, 16.1% (inactive). Same read-out and setting: as for `COc1ccc(C(=O)c2ccc(N(C)C)cc2)c2ccccc12`, the figure is -3.3% (inactive). `Cc1cc(C)n(-c2nc3ccccc3nc2N2CCN(C(=O)c3ccc(Cl)cc3)CC2)n1`: the inhibition was -2.4% (inactive).

`N#Cc1nc(-c2ccco2)oc1N1CCOCC1`: the inhibition was 3.4% (inactive). Still for that read-out and setting: as for `CNC(=O)CN(c1ccc(OC)cc1)S(=O)(=O)c1ccc(F)cc1`, the figure is -9% (inactive); as for `O=[N+]([O-])c1ccc(Sc2nc3ccccc3o2)c([N+](=O)[O-])c1`, 4.3% (inactive); as for `CCN1CCN(C(=O)CN(CCc2ccccc2)S(C)(=O)=O)CC1`, -9.3% (inactive). Turning to `Cc1oc(-c2ccc(Cl)cc2)cc1-c1nn2c(-c3ccoc3C)nnc2s1`, the inhibition was 0.3% (inactive). Same read-out and setting: next, `O=c1c(-c2ccc(Br)cc2)coc2c(CN3CCOCC3)c(O)ccc12`: 3.1% (inactive). On the same count and under the same terms, as for `CCCCN(C)CCCNC(=O)c1ccc2c(c1)NC(=O)C(N1CCOCC1)S2` (stereo not drawn), the figure is 5.4% (inactive). Consider `COc1ccc(Oc2cc(NC(=O)c3nn(C)cc3[N+](=O)[O-])cc([N+](=O)[O-])c2)cc1`, for which the inhibition was 11.6% (inactive). The same measure, in the same setting: next, `Cc1cc(C)cc(OCc2nnc(SCC(=O)N3CCN(c4ccccc4)CC3)o2)c1`: -9.6% (inactive); `COC(=O)Sc1nc(N2CCOCC2)c2c(c1C#N)CC(C)(C)OC2`: 4.8% (inactive); `Cc1ccc(CSc2nc3ccccc3cc2C=O)cc1`: -4% (inactive). The same measure, in the same setting: next, `Cc1cc(NC(=O)CSc2nc(-c3ccco3)cc(C(F)(F)F)n2)no1`: -2.8% (inactive); `Cc1cccc(CS(=O)(=O)c2nnc([C@H](Cc3ccccc3)NC(=O)OC(C)(C)C)o2)c1`: -5% (inactive). On the same count and under the same terms, next, `Cn1nc(CC(=O)NC2CCCCCC2)c2ccccc2c1=O`: -17.6% (inactive). Regarding `CN(Cc1ccccc1)C(=O)c1ccccc1NC(=O)c1ccccc1`, the inhibition was 5.1% (inactive).

Take `COc1ccc(CC(=O)OCc2cc3ccc(C)cc3[nH]c2=O)cc1`: the inhibition was 5.4% (inactive).

Take `CC(=O)c1cccc(S(=O)(=O)N2CCC(n3nnc4cc(F)ccc43)CC2)c1`: the inhibition was 6.4% (inactive). On the same count and under the same terms, next, `O=C1C(Cc2ccccc2)NC(=S)N1c1ccccc1` (stereo not drawn): 3.1% (inactive); `CCCn1c(=O)c2ccccc2n2c(SCC(=O)NCc3cccs3)nnc12`: -5.9% (inactive); `COc1ccc(CSc2nc3ccccc3[nH]2)cc1`: 9.9% (inactive). The same measure, in the same setting: as for `COc1ccc(NC(=O)N2CCn3c2nc2ccccc23)cc1`, the figure is 5% (inactive).

As for `CSc1nc2sc(-c3ccccc3)cc2c(=O)n1N`, the inhibition is -0.9% (inactive). Turning to `COc1ccc2c(c1)CCc1c(C(=O)N3CC4(C)CC3CC(C)(C)C4)noc1-2` (stereo not drawn), the inhibition was 4.4% (inactive). For the compound `Cc1cccc(NC(=O)Cn2nc(C(F)(F)F)cc2C2CC2)c1`, the inhibition was -14.3% (inactive).

Consider `COc1cc(CC(=O)Nc2ncc(C)s2)cc(OC)c1OC`, for which the inhibition was -7.4% (inactive).

On to `CCN(CC)S(=O)(=O)c1ccc(NC(=O)C(C)N(c2ccc(OC)cc2)S(C)(=O)=O)cc1` (stereo not drawn), for which the inhibition was -14.1% (inactive). In the case of `CCS(=O)(=O)N1CCC(C(=O)NC2CCCCC2)CC1`, the inhibition was 3.1% (inactive). Take `Cc1ccccc1Cn1nc(C)c(NC(=O)c2cc(-c3cccs3)on2)c1C`: the inhibition was 3.8% (inactive). On the same count and under the same terms, as for `Nc1c(C(=O)NC2CCCC2)c2nc3ccccc3nc2n1N`, the figure is -22.3% (inactive). The same measure, in the same setting: next, `CCCc1nnc(SCC(=O)O)n1/N=C/c1ccc2c(c1)OCO2`: -4.9% (inactive); `Cc1ccc(C(=O)CSc2nsc(C)c2C#N)cc1`: -11.1% (inactive).

Take `Clc1ccc(C2=Nn3c(nnc3-c3cccnc3)SC2)s1`: the inhibition was 0% (inactive). Turning to `OC1(c2cccc(C(F)(F)F)c2)CCN(c2ncnc3c2[nH]c2ccc(F)cc23)CC1`, the inhibition is 7.8% (inactive).

Consider `CCc1nnc(NC(=O)CSc2nnc(COc3ccccc3)n2-c2ccc(C)cc2)s1`, for which the inhibition is -4.1% (inactive).

Take `Cc1nn(S(=O)(=O)c2ccccc2)c(C)c1Sc1ccc([N+](=O)[O-])cc1`: the inhibition is 2.5% (inactive). As for `O=C(NCc1ccco1)c1ccc(CS(=O)(=O)Cc2ccc(Cl)cc2)o1`, the inhibition was -2.2% (inactive). Same read-out and setting: next, `COc1cc(C(=O)Nc2ccc(S(=O)(=O)NC(C)(C)C)cc2)cc(OC)c1OC`: -3.5% (inactive); `Cc1cc(C)c(C#N)c(SCc2nc3ccccc3[nH]2)n1`: -5.7% (inactive). For `CCOc1ccc(C2/C(=C(\O)c3c(C)[nH]c(C(=O)OC)c3C)C(=O)C(=O)N2CCN(C)C)cc1` (stereo not drawn), the inhibition is -9% (inactive). Still for that read-out and setting: next, `NC(=S)N/N=C/c1ccc(-c2ccc(Cl)c(Cl)c2)o1`: -6.9% (inactive).

Regarding `O=C(CCCCCN1C(=O)c2ccccc2C1=O)Nc1nccs1`, the inhibition is 8.8% (inactive). On the same count and under the same terms, as for `CCC(=O)Nc1cccc(C(=O)/C=C/c2cc(Br)ccc2OC)c1`, the figure is 0% (inactive). On the same count and under the same terms, next, `O=C1CC(N2CCN(Cc3ccc4c(c3)OCO4)CC2)C(=O)N1Cc1ccc(N2CCCC2=O)cc1` (stereo not drawn): -1.8% (inactive); `COC(=O)c1ccccc1NC(NC(=O)c1ccco1)C(=O)c1ccc(C)cc1` (stereo not drawn): 2.9% (inactive); `COc1ccc(S(=O)(=O)Nc2nc3n(n2)C(c2ccc(Cl)cc2)CC(=O)N3)cc1` (stereo not drawn): 4.9% (inactive).

The assay is the same for the next values; noted with them: cell-based imaging, cytoskeleton assembly phenotype, high content; cell count; at 10 µM; stronger effect = lower value.
Turning to `Cc1cccc2cc(C#N)c(SCC(=O)N3CC(=O)Nc4ccccc43)nc12`, the cell count was 67.8%. As to `COCCOC(=O)c1[nH]c2c(c1C)C(=O)CC(c1ccccc1)C2` (stereo not drawn), the cell count came to 56%.
